Assay results published in patent US12371464B2, “Polypeptides and uses thereof” (MEDIMMUNE LIMITED, priority 2020, dated 2025).
Numbered stars: 1 amine (or outer) side, 2 acyl side, 3 side chain; on linkers, the order of the positions; unused ones are H or OH. Bridge positions count the residues as written; N and C are the ends. Side chains are listed from the residue outwards. Peptide text beside a SMILES is read from it. * marks the point of attachment. C20 diacid = O=C(O)CCCCCCCCCCCCCCCCCCC(=O)*; γGlu = O=C(O)[C@H](CCC(=O)[*:2])N[*:1]

Assays:
Assay type in all cases: cell-based
[1] = molecular target: T1, rat amylin receptor (calcitonin receptor co-expressed with receptor activity modifying protein, RAMP3) (Rat AMYR3) (Rattus norvegicus, UniProt P32214+Q9JJ73); assay: cAMP production in HEK cells with stable recombinant expression of rat amylin receptor (Rat AMYR3); conditions: cAMP HTRF, assay buffer with 0.1% BSA, 30 minutes
T1 construct: expressed in transfected cells
T1 sequence (P32214 25-516): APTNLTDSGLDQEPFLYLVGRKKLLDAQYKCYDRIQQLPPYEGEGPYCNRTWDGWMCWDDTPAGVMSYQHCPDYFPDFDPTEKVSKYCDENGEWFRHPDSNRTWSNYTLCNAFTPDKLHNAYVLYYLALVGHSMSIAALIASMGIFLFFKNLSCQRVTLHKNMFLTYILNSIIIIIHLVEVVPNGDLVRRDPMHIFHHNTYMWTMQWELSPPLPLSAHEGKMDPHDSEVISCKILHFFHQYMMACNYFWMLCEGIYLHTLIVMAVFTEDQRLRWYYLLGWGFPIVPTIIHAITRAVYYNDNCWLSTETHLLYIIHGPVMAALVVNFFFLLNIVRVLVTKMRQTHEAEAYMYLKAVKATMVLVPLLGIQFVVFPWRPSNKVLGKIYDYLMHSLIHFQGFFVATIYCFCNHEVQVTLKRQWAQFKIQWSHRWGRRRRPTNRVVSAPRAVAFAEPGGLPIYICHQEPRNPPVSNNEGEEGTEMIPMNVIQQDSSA
T1 sequence (Q9JJ73 23-147 partner): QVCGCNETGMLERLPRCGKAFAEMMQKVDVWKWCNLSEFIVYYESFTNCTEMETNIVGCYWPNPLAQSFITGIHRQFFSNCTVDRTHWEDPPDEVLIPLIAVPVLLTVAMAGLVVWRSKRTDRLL
Procedure: The functional activities of lipidated pramlintide analogue peptides, such as cAMP production, were tested in 1321N1 cell line with stable recombinant expression of human calcitonin receptor (hCTR) or human amylin receptor (calcitonin receptor co-expressed with receptor activity modifying protein, RAMP3) (hAMYR3) or HEK cells with stable recombinant expression of rat calcitonin receptor (rat CTR) or rat amylin receptor (calcitonin receptor co-expressed with receptor activity modifying protein, RAMP3) (Rat AMYR3). […]
(§1) The test peptide stock was prepared in DMSO and diluted in assay buffer to reach stated concentrations and transferred in duplicates into a 384-black shallow well microtitre assay plate (Corning #3676). Cells were added to the assay plate, incubated at room temperature for 30 minutes and the CAMP level measured using CAMP dynamic 2 HTRF kit (Cisbio, Cat #62AM4PEJ), following the two step protocol as per manufacturer's recommendations. The plates were read on an Envision (Perkin Elmer) using excitation wavelength of 320 nm and emission wavelengths of 620 nm & 665 nm.
Data was transformed to % Delta F as described in the manufacturer's guidelines and analyzed as percent activation of maximal amylin or calcitonin effect by 4-parameter logistic fit to determine EC50 values. […]

[2] = molecular target: T2, human amylin receptor (calcitonin receptor co-expressed with receptor activity modifying protein, RAMP3) (hAMYR3) (Homo sapiens, UniProt O60896+P30988); assay: cAMP production in 1321N1 cells with stable recombinant expression of human amylin receptor (hAMYR3); conditions: cAMP production, 1321N1 cells expressing human amylin3 receptor
T2 construct: expressed in transfected cells
T2 sequence (P30988 25-474): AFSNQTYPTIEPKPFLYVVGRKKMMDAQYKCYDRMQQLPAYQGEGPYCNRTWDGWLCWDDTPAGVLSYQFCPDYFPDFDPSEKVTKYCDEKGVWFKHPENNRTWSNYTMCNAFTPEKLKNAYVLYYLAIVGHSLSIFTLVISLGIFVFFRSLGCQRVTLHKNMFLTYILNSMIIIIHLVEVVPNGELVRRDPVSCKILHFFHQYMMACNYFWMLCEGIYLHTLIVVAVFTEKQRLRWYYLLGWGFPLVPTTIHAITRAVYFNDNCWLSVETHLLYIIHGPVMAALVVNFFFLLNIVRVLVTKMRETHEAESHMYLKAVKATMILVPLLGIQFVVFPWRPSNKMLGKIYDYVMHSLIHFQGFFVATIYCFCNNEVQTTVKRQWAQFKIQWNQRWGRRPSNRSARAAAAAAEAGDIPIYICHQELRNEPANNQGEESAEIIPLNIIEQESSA
T2 sequence (O60896 24-148 partner): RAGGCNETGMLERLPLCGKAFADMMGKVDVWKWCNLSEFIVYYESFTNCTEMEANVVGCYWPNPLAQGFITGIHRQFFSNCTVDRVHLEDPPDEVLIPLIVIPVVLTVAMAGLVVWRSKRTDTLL
Procedure: (§2) The functional activities of lipidated pramlintide analogue peptides, such as cAMP production, were tested in 1321N1 cell line with stable recombinant expression of human calcitonin receptor (hCTR) or human amylin receptor (calcitonin receptor co-expressed with receptor activity modifying protein, RAMP3) (hAMYR3) or HEK cells with stable recombinant expression of rat calcitonin receptor (rat CTR) or rat amylin receptor (calcitonin receptor co-expressed with receptor activity modifying protein, RAMP3) (Rat AMYR3).
(§3) Cryopreserved cell stock was thawed rapidly in a water-bath, suspended in assay buffer (0.1% BSA (Sigma #A3059) in HBSS (Sigma #H8264) with 25 mM HEPES, pH 7.4 and containing 0.5 mM IB MX (Sigma #17018)) and spun at 240×g for 5 minutes. Cells were re-suspended in assay buffer at a batch-dependent optimized concentration (e.g. hCTR cells at 0.125×10^5 cells/mL, hAMYR3 cells at 0.125×10^5 cells/mL, rat CTR cells at 1×10^5 cells/mL, rat AMYR3 at 2×10^5 cells/mL).
as §1
(§4) Data was transformed to % Delta F as described in the manufacturer's guidelines and analyzed as percent activation of maximal amylin or calcitonin effect by 4-parameter logistic fit to determine EC50 values. The selectivity of a peptide to hAMYR vs hCTR is defined as a ratio of EC50 values at the two receptors.

[3] = molecular target: T3, human calcitonin receptor (hCTR) (Homo sapiens, UniProt P30988); assay: cAMP production in 1321N1 cells with stable recombinant expression of human calcitonin receptor (hCTR); conditions: 1321N1 cells expressing human calcitonin receptor
T3 construct: expressed in transfected cells
T3 sequence (P30988 25-474): T2 sequence (P30988 25-474)
Procedure: as §2, §3, §1, §4

Row | SMILES | EC50 [1] [nM] | EC50 [2] [nM] | EC50 [3] [nM]
1 | CC[C@H](C)[C@H](NC(=O)[C@H](C)NC(=O)[C@@H]1CCCN1C(=O)[C@H](Cc1ccccc1)NC(=O)[C@H](CC(N)=O)NC(=O)[C@@H]1CCCN1C(=O)[C@H](CO)NC(=O)[C@H](CO)NC(=O)[C@H](Cc1c[nH]cn1)NC(=O)[C@@H](NC(=O)[C@H](CC(C)C)NC(=O)[C@H](Cc1ccccc1)NC(=O)[C@H](CC(N)=O)NC(=O)[C@H](C)NC(=O)[C@H](CC(C)C)NC(=O)[C@H](CCCNC(=N)N)NC(=O)[C@H](CCC(N)=O)NC(=O)[C@@H](NC(=O)[C@H](C)NC(=O)[C@@H]1CSSC[C@H](NC(=O)[C@@H](N)CCCCNC(=O)CC[C@H](NC(=O)CC[C@H](NC(=O)CCCCCCCCCCCCCCCCCCC(=O)O)C(=O)O)C(=O)O)C(=O)N[C@@H](CC(N)=O)C(=O)N[C@@H]([C@@H](C)O)C(=O)N[C@@H](C)C(=O)N[C@@H]([C@@H](C)O)C(=O)N1)[C@@H](C)O)C(C)C)C(=O)N[C@@H](CC(C)C)C(=O)N[C@@H](CO)C(=O)N1CCC[C@H]1C(=O)N[C@H](C(=O)N[C@@H](CC(N)=O)C(=O)N[C@H](C(=O)NCC(=O)N[C@@H](CO)C(=O)N[C@@H](CC(N)=O)C(=O)N[C@H](C(=O)N[C@@H](Cc1ccc(O)cc1)C(N)=O)[C@@H](C)O)C(C)C)[C@@H](C)O [Peptide 115] (H-K([γGlu-γGlu-C20 diacid])CNTATCATQRLANFLVHSSPNFPAILSPTNVGSNTY-NH2; disulfide 2-7; N-terminus assumed) | 0.0226 | 0.703 | 7.65
2 | CC[C@H](C)[C@H](NC(=O)[C@@H]1CCCN1C(=O)CNC(=O)[C@H](Cc1ccccc1)NC(=O)[C@H](CC(N)=O)NC(=O)[C@H](CC(N)=O)NC(=O)[C@H](CO)NC(=O)[C@H](CO)NC(=O)[C@H](Cc1c[nH]cn1)NC(=O)[C@@H](NC(=O)[C@H](CC(C)C)NC(=O)[C@H](Cc1ccccc1)NC(=O)[C@H](CC(N)=O)NC(=O)[C@H](C)NC(=O)[C@H](CC(C)C)NC(=O)[C@H](CCCNC(=N)N)NC(=O)[C@H](CCC(N)=O)NC(=O)[C@@H](NC(=O)[C@H](C)NC(=O)[C@@H]1CSSC[C@H](NC(=O)[C@@H](N)CCCCNC(=O)CC[C@H](NC(=O)CC[C@H](NC(=O)CCCCCCCCCCCCCCCCCCC(=O)O)C(=O)O)C(=O)O)C(=O)N[C@@H](CC(N)=O)C(=O)N[C@@H]([C@@H](C)O)C(=O)N[C@@H](C)C(=O)N[C@@H]([C@@H](C)O)C(=O)N1)[C@@H](C)O)C(C)C)C(=O)N[C@@H](CC(C)C)C(=O)N1CCC[C@H]1C(=O)N1CCC[C@H]1C(=O)N[C@H](C(=O)N[C@@H](CC(N)=O)C(=O)N[C@H](C(=O)NCC(=O)N[C@@H](CO)C(=O)N[C@@H](CCCNC(=N)N)C(=O)N[C@H](C(=O)N[C@@H](Cc1ccc(O)cc1)C(N)=O)[C@@H](C)O)C(C)C)[C@@H](C)O [Peptide 114] (H-K([γGlu-γGlu-C20 diacid])CNTATCATQRLANFLVHSSNNFGPILPPTNVGSRTY-NH2; disulfide 2-7; N-terminus assumed) | 0.0122 | 1.32 | 15.8
